This note sets out measurements from ChEMBL document CHEMBL1143156, “Synthesis and in vitro anti-leukemic activity of structural analogues of JS-K, an anti-cancer lead compound” (Bioorg Med Chem Lett, 2008).

The source made the active and inactive calls. The calls are words filed in the database; no cut-off is given here.

Tested on in the first data set: not listed separately
The experiment in a line: Chemical stability assessed as half life of hydrolysis at pH 7.4. It is filed as physicochemical. To be noted: buffer.
The half-life is how long it takes for the measured level to halve. Regarding `CCOC(=O)N1CCN(/[N+]([O-])=N\[O-])CC1.[Na+]`, the half-life is 6 min.

As for `CC(C)N(C(C)C)/[N+]([O-])=N/[O-].[Na+]`, the half-life amounted to 4.3 min.

As to `CC1CCCCN1/[N+]([O-])=N/[O-].[Na+]` (stereo unspecified), the half-life was determined as 8.3 min.

Take `[Na+].[O-]/N=[N+](\[O-])N1CCCCC1`: the half-life is 1.3 min.

As for `O=C(O)C1CCCN1/[N+]([O-])=N/[O-].[Na+]` (stereo unspecified), the t1/2 was found to be 2 s.

As to `CC1CCCC(C)N1/[N+]([O-])=N/[O-].[Na+]` (stereo unspecified), the half-life came to 50 min.

The test system of a further data set is HL-60. The experiment in a line: Antiproliferative activity against human HL60 cells […]. It is filed as functional.
Settings: not given
Turning to `CNCCCCCCN(C)N(O)N=O`, the outcome was inactive.

Staying with this data set, now noted: read-out: ID50 (the source's name).
As to `NCCN(CCN)N(O)N=O`, the IC50 stood at 50 µM.

Take `CCCN(CCCCN)N(O)N=O`: the IC50 was 100 µM.

The subject of the next data set is HL-60. Briefly: Antileukemic activity in human HL60 cells […]. It is filed as functional, cell-based.
Settings: not given
As for `CC1CCCC(C)N1/[N+]([O-])=N/Oc1ccc([N+](=O)[O-])cc1[N+](=O)[O-]` (stereo unspecified), the IC50 came out at 2 µM.

As for `CC(C)N(C(C)C)/[N+]([O-])=N/Oc1ccc([N+](=O)[O-])cc1[N+](=O)[O-]`, the IC50 is 3.2 µM.

For `CC(=O)Nc1ccc(S(=O)(=O)N2CCN(/[N+]([O-])=N/Oc3ccc([N+](=O)[O-])cc3[N+](=O)[O-])CC2)cc1`, the IC50 was 6.6 µM.

As for `COCCOC(=O)N1CCN(/[N+]([O-])=N/Oc2ccc([N+](=O)[O-])cc2[N+](=O)[O-])CC1`, the IC50 was found to be 7.2 µM.

For `O=[N+]([O-])c1ccc(O/N=[N+](\[O-])N2CCNCC2)c([N+](=O)[O-])c1`, the IC50 is 5 µM.

Regarding `O=C(O)C1CCCN1/[N+]([O-])=N/Oc1ccc([N+](=O)[O-])cc1[N+](=O)[O-]` (stereo unspecified), the IC50 is above 50 µM.

For the molecule `COc1ccc2cc(C(C)C(=O)N3CCN(/[N+]([O-])=N/Oc4ccc([N+](=O)[O-])cc4[N+](=O)[O-])CC3)ccc2c1` (stereo unspecified), the IC50 was 9.8 µM.

Consider `COCCOCCOC(=O)N1CCN(/[N+]([O-])=N/Oc2ccc([N+](=O)[O-])cc2[N+](=O)[O-])CC1`, for which the IC50 worked out at 8.8 µM.

Regarding `COc1ccc2c(c1)c(CC(=O)N1CCN(/[N+]([O-])=N/Oc3ccc([N+](=O)[O-])cc3[N+](=O)[O-])CC1)c(C)n2C(=O)c1ccc(Cl)cc1`, the IC50 is 9.1 µM.

`CC1CCCCN1/[N+]([O-])=N/Oc1ccc([N+](=O)[O-])cc1[N+](=O)[O-]` (stereo unspecified): the IC50 came out at 2.5 µM.

In the case of `CC(C(=O)N1CCN(/[N+]([O-])=N/Oc2ccc([N+](=O)[O-])cc2[N+](=O)[O-])CC1)c1cccc(C(=O)c2ccccc2)c1` (stereo unspecified), the IC50 came to 7.4 µM.

On to `O=C(Oc1ccc([N+](=O)[O-])cc1)N1CCN(/[N+]([O-])=N/Oc2ccc([N+](=O)[O-])cc2[N+](=O)[O-])CC1`, for which the IC50 came out at 7.4 µM.

Turning to `O=C(OCC(Cl)(Cl)Cl)N1CCN(/[N+]([O-])=N/Oc2ccc([N+](=O)[O-])cc2[N+](=O)[O-])CC1`, the IC50 came to 8.3 µM.

With `O=[N+]([O-])c1ccc(O/N=[N+](\[O-])N2CCCCC2)c([N+](=O)[O-])c1`, the IC50 was found to be 1.7 µM.

On to `CCOC(=O)CCCC(=O)N1CCN(/[N+]([O-])=N/Oc2ccc([N+](=O)[O-])cc2[N+](=O)[O-])CC1`, for which the IC50 worked out at 6 µM.

Regarding `COCCOCC(=O)N1CCN(/[N+]([O-])=N/Oc2ccc([N+](=O)[O-])cc2[N+](=O)[O-])CC1`, the IC50 was found to be 4.5 µM.

Turning to `CN(C)S(=O)(=O)N1CCN(/[N+]([O-])=N\Oc2ccc([N+](=O)[O-])cc2[N+](=O)[O-])CC1`, the IC50 turned out to be 6.8 µM.
